Measured values: patent EP0337459A2, “Platinum complex, process for preparing same and antitumor agent” (TORAY INDUSTRIES, INC., priority 1988, dated 1989)
Values joined by “and” are separate entries in the source; they are usually repeats but may differ in a detail not shown here. Equal values may be shown once.

What was measured:
Slc:ICR mice = experiment: Acute toxicity test in mice (LD50, Miller-Tainter method); type: in vivo; conditions: intraperitoneal, Slc:ICR mice (male), death rate on the 14th day
Protocol: The acute toxicity test of the compounds of the present invention to mice were carried out by using CDDP as the control. Platinum complexes to be tested was administered intraperitoneally to Slc:ICR mice (male, 5 weeks old, 6 mice/group). Each complex was used in the form of a solution or suspension in a 0.05% "Tween 80" - saline. The LD₅₀ value was calculated by the Miller-Tainter method from the death rate on the 14th day from the date of the administration.

L1210 Mouse Leukemia = experiment: Antitumor activity against L1210 mouse leukemia inoculated i.p. in mice; type: in vivo, CDF₁ mouse; conditions: for Survival days (mean ± standard deviation) / T/C (%): CDF₁ mice; for Survival rate: living mice on the 30th day / mice in group
Protocol: Approximately 10⁵ cells of mouse leukemia L1210 which had been subcultured in DBA/2 mice were inoculated into the abdominal cavity of CDF₁ mouse (male, 6 weeks old, each group consisting of 6 to 10 mice). […] CDDP and CBDCA were tested as the positive control. Each complex tested was used in the form of a solution or suspension in 0.05% "Tween 80"-saline or in distilled water. Antitumor activity was evaluated based on the T/C value, calculated according to the following formula: [formula] The number of living mice was also recorded on the 30th day.

[1] = dose 1 mg/kg i.p. on Day 1, 5 and 9
[2] = dose 10 mg/kg i.p. on Day 1, 5 and 9
[3] = dose 25 mg/kg i.p. on Day 1, 5 and 9
[4] = dose 50 mg/kg i.p. on Day 1, 5 and 9
[5] = dose 100 mg/kg i.p. on Day 1, 5 and 9
[6] = dose 200 mg/kg i.p. on Day 1, 5 and 9
[7] = dose 5 mg/kg i.p. on Day 1, 5 and 9
[8] = dose 2.5 mg/kg i.p. on Day 1, 5 and 9, 2.5 mg/kg
[9] = dose 5 mg/kg i.p. on Day 1, 5 and 9, 5 mg/kg
[10] = dose 7.5 mg/kg i.p. on Day 1, 5 and 9, 7.5 mg/kg

| Compound | LD₅₀ Value (Slc:ICR mice) [mg/kg] | Survival days (mean ± standard deviation) (L1210 Mouse Leukemia; [1]) [days] | T/C (%) (L1210 Mouse Leukemia; [1]) | Survival days (mean ± standard deviation) (L1210 Mouse Leukemia; [2]) [days] | T/C (%) (L1210 Mouse Leukemia; [2]) | Survival days (mean ± standard deviation) (L1210 Mouse Leukemia; [3]) [days] | T/C (%) (L1210 Mouse Leukemia; [3]) | Survival days (mean ± standard deviation) (L1210 Mouse Leukemia; [4]) [days] | T/C (%) (L1210 Mouse Leukemia; [4]) | Survival days (mean ± standard deviation) (L1210 Mouse Leukemia; [5]) [days] | T/C (%) (L1210 Mouse Leukemia; [5]) | Survival days (mean ± standard deviation) (L1210 Mouse Leukemia; [6]) [days] | T/C (%) (L1210 Mouse Leukemia; [6]) | Survival rate (L1210 Mouse Leukemia; [1]) | Survival rate (L1210 Mouse Leukemia; [2]) | Survival rate (L1210 Mouse Leukemia; [3]) | Survival rate (L1210 Mouse Leukemia; [4]) | Survival rate (L1210 Mouse Leukemia; [5]) | Survival rate (L1210 Mouse Leukemia; [6]) | other results |
| --- | --- | --- | --- | --- | --- | --- | --- | --- | --- | --- | --- | --- | --- | --- | --- | --- | --- | --- | --- | --- |
| [Pt(trans-ℓ-1,2-diaminocyclohexane)] (3-acetyl-6-methyl-2H-pyran-2,4(3H)-dione)₂·H₂O [Example 2] | 61 | 8.7 ± 0.5 | 104 | 13.8 ± 3.6 | 164 | 19.7 ± 7.5 | 235 | 10.0 ± 1.1 | 119 | 6.3 ± 2.0 | 75 | 2.8 ± 1.6 | 33 | 0/6 | 0/6 | 1/6 | 0/6 | 0/6 | 0/6 |  |
| [Pt(trans-ℓ-1,2-diaminocyclohexane)](3-acetyl-6-methyltetrahydropyran-2,4-dione) (C₃H₇COO)·H₂O [Example 5] | 111 | 8.8 ± 1.6 | 104 | 10.2 ± 1.6 | 120 | 11.8 ± 1.7 | 139 | 16.3 ± 5.0 | 192 | 14.2 ± 5.0 | 167 |  |  | 0/6 | 0/6 | 0/6 | 0/6 | 0/6 |  |  |
| [Pt(trans-ℓ-1,2-diaminocyclohexane)](3-acetyl-6-methyltetrahydropyran-2,4-dione)(CH₃COO)·H₂O [Example 3] | 61 | 9.2 ± 1.0 | 110 | 14.0 ± 2.6 | 167 | 23.0 ± 6.4 | 274 | 15.2 ± 4.1 | 181 | 7.7 ± 1.5 | 91 | 3.0 ± 2.0 | 36 | 0/6 | 0/6 | 2/6 | 0/6 | 0/6 | 0/6 | Survival days (mean ± standard deviation) (L1210 Mouse Leukemia; [7]): 12.8 ± 3.0 days; T/C (%) (L1210 Mouse Leukemia; [7]): 152%; Survival rate (L1210 Mouse Leukemia; [7]): 0/6 |
| N.N.O=C([O-])C1(C(=O)[O-])CCC1.[Pt+2] [CBDCA, Platinum(II) cis-diamine-1,1-cyclobutanedicarboxylate, reference compound] |  | 8.3 ± 0.5 | 98 | 9.3 ± 0.5 | 109 | 10.1 ± 1.3 | 119 | 13.1 ± 2.3 | 156 | 14.1 ± 3.7 | 166 | 9.6 ± 0.7 | 113 | 0/10 | 0/10 | 0/10 | 0/10 | 0/10 | 0/10 |  |
| cis-diamminedichloroplatinum (II) [CDDP, reference compound] | 15.3 |  |  |  |  |  |  |  |  |  |  |  |  |  |  |  |  |  |  | Survival days (mean ± standard deviation) (L1210 Mouse Leukemia; [8]): 15.2 ± 1.9 days and 12.0 ± 3.0 days and 13.0 ± 3.1 days and 10.5 ± 1.8 days; T/C (%) (L1210 Mouse Leukemia; [8]): 181% and 143% and 153% and 125%; Survival days (mean ± standard deviation) (L1210 Mouse Leukemia; [9]): 18.5 ± 6.0 days and 14.3 ± 2.9 days and 18.2 ± 0.4 days and 15.5 ± 1.4 days; T/C (%) (L1210 Mouse Leukemia; [9]): 220% and 170% and 214% and 185%; Survival days (mean ± standard deviation) (L1210 Mouse Leukemia; [10]): 17.0 ± 2.2 days and 15.5 ± 2.1 days and 20.2 ± 4.8 days and 22.3 ± 3.9 days; T/C (%) (L1210 Mouse Leukemia; [10]): 202% and 185% and 238% and 266%; Survival rate (L1210 Mouse Leukemia; dose 2.5 mg/kg i.p. on Day 1, 5 and 9): 0/6; Survival rate (L1210 Mouse Leukemia; [9]): 1/6 and 0/6; Survival rate (L1210 Mouse Leukemia; [10]): 0/6 and 1/6 |
| [Pt(trans-ℓ-1,2-diaminocyclohexane)] (3-acetyl-6-methyltetrahydropyran-2,4-dione)₂·H₂O [Example 1] | 98 | 8.5 ± 0.5 | 101 | 11.5 ± 1.2 | 137 | 14.2 ± 3.2 | 169 | 17.0 ± 3.0 | 202 | 15.5 ± 5.0 | 185 | 6.0 | 71 | 0/6 | 0/6 | 0/6 | 0/6 | 0/6 | 0/6 |  |
| [Pt(trans-ℓ-1,2-diaminocyclohexane)](3-acetyl-6-methyl-2H-pyran-2,4(3H)-dione)(NO₃)·H₂O [Example 14] | 73 | 8.2 ± 0.4 | 98 | 11.3 ± 0.8 | 135 | 19.0 ± 8.5 | 226 | 18.0 ± 6.2 | 214 | 9.5 ± 1.2 | 113 | 5.0 | 60 | 0/6 | 0/6 | 2/6 | 1/6 | 0/6 | 0/6 |  |
